Assay results: patent US12077503B2, “Substituted cyclic amides and their use as herbicides” (FMC CORPORATION, priority 2015, dated 2024)

Experiments:
Type in all cases: in vivo
[1] = test system: ragweed (common ragweed, Ambrosia elatior); assay: Test A postemergence
Description: (§1) Seeds of plant species selected from barnyardgrass (Echinochloa crus-galli), Kochia (Kochia scoparia), ragweed (common ragweed, Ambrosia elatior), ryegrass, Italian (Italian ryegrass, Lolium multiflorum), crabgrass, large (Digitaria sanguinalis), giant foxtail (Setaria faberii), green foxtail (Setaria viridis), morningglory (Ipomoea spp.), pigweed (Amaranthus retroflexus), velvetleaf (Abutilon theophrasti), wheat (Triticum aestivum), and corn (Zea mays) were planted into a blend of loam soil and sand and treated preemergence with a directed soil spray using test chemicals formulated in anon-phytotoxic solvent mixture which included a surfactant.
(§2) At the same time, plants selected from these crop and weed species and also blackgrass (Alopecurus myosuroides), and Galium (catchweed bedstraw, Galium aparine) were planted in pots containing the same blend of loam soil and sand and treated with postemergence applications of test chemicals formulated in the same manner. Plants ranged in height from 2 to 10 cm and were in the one- to two-leaf stage for the postemergence treatment. Treated plants and untreated controls were maintained in a greenhouse for approximately 10 d, after which time all treated plants were compared to untreated controls and visually evaluated for injury. Plant response ratings, summarized in Table A, are based on a 0 to 100 scale where 0 is no effect and 100 is complete control. A dash (-) response means no test result.

[2] = test system: pigweed (Amaranthus retroflexus); assay: Test A postemergence
Description: as §1, §2

[3] = test system: Galium (catchweed bedstraw, Galium aparine); assay: Test A postemergence
Description: as §1, §2

[4] = test system: giant foxtail (Setaria faberii); assay: Test A postemergence
Description: as §1, §2

[5] = test system: ryegrass, Italian (Italian ryegrass, Lolium multiflorum); assay: Test A postemergence
Description: as §1, §2

[6] = test system: blackgrass (Alopecurus myosuroides); assay: Test A postemergence
Description: as §1, §2

corn (Zea mays) = assay: Test A postemergence
Description: as §1, §2

Kochia (Kochia scoparia) [7] = assay: Test A postemergence
Description: as §1, §2

[8] = test system: wheat (Triticum aestivum); assay: Test A postemergence
Description: as §1, §2

[9] = test system: barnyardgrass (Echinochloa crus-galli); assay: Test A postemergence
Description: as §1, §2

[10] = test system: ducksalad (Heteranthera limosa); assay: Test B flooded paddy test; conditions: Flood, 250 g ai/ha; 0 to 100 scale where 0 is no effect and 100 is complete control; 13 to 15 d
Procedure: (§3) Plant species in the flooded paddy test selected from rice (Oryra sativa), sedge, umbrella (small-flower umbrella sedge, Cyperus difformis), ducksalad (Heteranthera limosa), and barnyardgrass (Echinochloa crus-galli) were grown to the 2-leaf stage for testing. At time of treatment, test pots were flooded to 3 cm above the soil surface, treated by application of test compounds directly to the paddy water, and then maintained at that water depth for the duration of the test. Treated plants and controls were maintained in a greenhouse for 13 to 15 d, after which time all species were compared to controls and visually evaluated. Plant response ratings, summarized in Table B, are based on a scale of 0 to 100 where 0 is no effect and 100 is complete control. A dash (-) response means no test result.

rice (Oryra sativa) = assay: Test B flooded paddy test; conditions: Flood, 250 g ai/ha; 0 to 100 scale where 0 is no effect and 100 is complete control; 13 to 15 d
Procedure: as §3

[11] = test system: sedge, umbrella (small-flower umbrella sedge, Cyperus difformis); assay: Test B flooded paddy test; conditions: Flood, 250 g ai/ha; 0 to 100 scale where 0 is no effect and 100 is complete control; 13 to 15 d
Procedure: as §3

[12] = test system: barnyardgrass (Echinochloa crus-galli); assay: Test B flooded paddy test; conditions: Flood, 250 g ai/ha; 0 to 100 scale where 0 is no effect and 100 is complete control; 13 to 15 d
Procedure: as §3

[13] = test system: ragweed (common ragweed, Ambrosia elatior); assay: Test A preemergence; conditions: for Plant response rating, Ragweed: 125 g ai/ha
Description: as §1, §2

[14] = test system: pigweed (Amaranthus retroflexus); assay: Test A preemergence; conditions: for Plant response rating, Pigweed: 125 g ai/ha
Description: as §1, §2

[15] = test system: giant foxtail (Setaria faberii); assay: Test A preemergence; conditions: for Plant response rating, Foxtail, Giant: 125 g ai/ha
Description: as §1, §2

[16] = test system: ryegrass, Italian (Italian ryegrass, Lolium multiflorum); assay: Test A preemergence; conditions: for Plant response rating, Ryegrass, Italian: 125 g ai/ha
Description: as §1, §2

Kochia (Kochia scoparia) [17] = assay: Test A preemergence; conditions: for Plant response rating, Kochia: 125 g ai/ha
Description: as §1, §2

[18] = test system: barnyardgrass (Echinochloa crus-galli); assay: Test A preemergence; conditions: for Plant response rating, Barnyardgrass: 125 g ai/ha
Description: as §1, §2

[19] = 500 g ai/ha, postemergence, 0 to 100 scale, 0 no effect, 100 complete control
[20] = Postemergence, 125 g ai/ha, visual injury, 0 to 100 scale (0 no effect, 100 complete control), approx. 10 d
[21] = preemergence, 0 to 100 scale (0 no effect, 100 complete control)
[22] = Preemergence, 500 g ai/ha, 0 is no effect, 100 is complete control
[23] = 125 g ai/ha, postemergence, visual injury rating on 0 to 100 scale (0 no effect, 100 complete control), approx. 10 d
[24] = Postemergence, 500 g ai/ha, 0 to 100 scale where 0 is no effect and 100 is complete control
[25] = Preemergence, visual injury after approximately 10 d, 0 to 100 scale where 0 is no effect and 100 is complete control
[26] = Preemergence, 500 g ai/ha, visual injury approx. 10 d

## O=C1NCC(c2ccccc2-c2ccccc2)C1C(=O)Nc1ccc(F)c(F)c1F (racemic) [Compound 382]
[1]; [19]
  Plant response rating, Ragweed: 0
[1]; [20]
  Plant response rating, Ragweed: 0
[2]; [19]
  Plant response rating, Pigweed: 0
[2]; [20]
  Plant response rating, Pigweed: 0
[3]; [19]
  Plant response rating, Galium: 0
[3]; [20]
  Plant response rating, Galium: 0
[4]; [19]
  Plant response rating, Foxtail, Giant: 20
[4]; [20]
  Plant response rating, Foxtail, Giant: 0
[5]; [19]
  Plant response rating, Ryegrass, Italian: 0
[5]; [20]
  Plant response rating, Ryegrass, Italian: 0
[6]; [19]
  Plant response rating, Blackgrass: 0
[6]; [20]
  Plant response rating, Blackgrass: 0
Corn (Zea mays); [19]
  Plant response rating, Corn: 0
Corn (Zea mays); [20]
  Plant response rating, Corn: 0
Kochia (Kochia scoparia) [7]; [19]
  Plant response rating, Kochia: 0
Kochia (Kochia scoparia) [7]; [20]
  Plant response rating, Kochia: 0
[8]; [19]
  Plant response rating, Wheat: 0
[8]; [20]
  Plant response rating, Wheat: 0
[9]; [19]
  Plant response rating, Barnyardgrass: 20
[9]; [20]
  Plant response rating, Barnyardgrass: 0
[10]
  Plant response rating, Ducksalad: 0
Rice (Oryra sativa)
  Plant response rating, Rice: 0
[11]
  Plant response rating, Sedge, Umbrella: 0
[12]
  Plant response rating, Barnyardgrass: 0
[13]; [21]
  Plant response rating, Ragweed: 0
[13]; [22]
  Ragweed plant response rating (0 to 100 scale): 0
[14]; [21]
  Plant response rating, Pigweed: 0
[14]; [22]
  Pigweed plant response rating (0 to 100 scale): 0
[15]; [21]
  Plant response rating, Foxtail, Giant: 0
[15]; [22]
  Foxtail, Giant plant response rating (0 to 100 scale): 30
[16]; [21]
  Plant response rating, Ryegrass, Italian: 0
[16]; [22]
  Ryegrass, Italian plant response rating (0 to 100 scale): 0
Kochia (Kochia scoparia) [17]; [21]
  Plant response rating, Kochia: 0
Kochia (Kochia scoparia) [17]; [22]
  Kochia plant response rating (0 to 100 scale): 0
[18]; [21]
  Plant response rating, Barnyardgrass: 0
[18]; [22]
  Barnyardgrass plant response rating (0 to 100 scale): 50

## CC(C)c1ccc(C2CNC(=O)C2C(=O)Nc2ccccc2S(C)(=O)=O)cc1 (racemic) [Compound 500]
[1]; [23]
  Ragweed plant response rating: 0
[1]; [24]
  Plant response rating, Ragweed: 40
[2]; [23]
  Pigweed plant response rating: 0
[2]; [24]
  Plant response rating, Pigweed: 0
[3]; [23]
  Galium plant response rating: 0
[3]; [24]
  Plant response rating, Galium: 0
[4]; [23]
  Foxtail, Giant plant response rating: 0
[4]; [24]
  Plant response rating, Foxtail, Giant: 50
[5]; [23]
  Ryegrass, Italian plant response rating: 0
[5]; [24]
  Plant response rating, Ryegrass, Italian: 0
[6]; [23]
  Blackgrass plant response rating: 0
[6]; [24]
  Plant response rating, Blackgrass: 0
Corn (Zea mays); [23]
  Corn plant response rating: 0
Corn (Zea mays); [24]
  Plant response rating, Corn: 20
Kochia (Kochia scoparia) [7]; [23]
  Kochia plant response rating: 0
Kochia (Kochia scoparia) [7]; [24]
  Plant response rating, Kochia: 20
[8]; [23]
  Wheat plant response rating: 0
[8]; [24]
  Plant response rating, Wheat: 20
[9]; [23]
  Barnyardgrass plant response rating: 0
[9]; [24]
  Plant response rating, Barnyardgrass: 50
[10]
  Plant response rating, Ducksalad: 65
Rice (Oryra sativa)
  Plant response rating, Rice: 0
[11]
  Plant response rating, Sedge, Umbrella: 0
[12]
  Plant response rating, Barnyardgrass: 0
[13]; [25]
  Plant response rating, Ragweed: 0
[13]; [26]
  Ragweed plant response rating (0 to 100 scale, 0 is no effect, 100 is complete control): 0
[14]; [25]
  Plant response rating, Pigweed: 0
[14]; [26]
  Pigweed plant response rating (0 to 100 scale, 0 is no effect, 100 is complete control): 20
[15]; [25]
  Plant response rating, Foxtail, Giant: 80
[15]; [26]
  Foxtail, Giant plant response rating (0 to 100 scale, 0 is no effect, 100 is complete control): 90
[16]; [25]
  Plant response rating, Ryegrass, Italian: 0
[16]; [26]
  Ryegrass, Italian plant response rating (0 to 100 scale, 0 is no effect, 100 is complete control): 0
Kochia (Kochia scoparia) [17]; [25]
  Plant response rating, Kochia: 50
Kochia (Kochia scoparia) [17]; [26]
  Kochia plant response rating (0 to 100 scale, 0 is no effect, 100 is complete control): 50
[18]; [25]
  Plant response rating, Barnyardgrass: 0
[18]; [26]
  Barnyardgrass plant response rating (0 to 100 scale, 0 is no effect, 100 is complete control): 40
